The target of this test is T1, human HSL (Homo sapiens, UniProt Q05469).
T1 construct: overlapping PCR to generate a full length human HSL ORF with a 3′-His6 tag; His6 (C); made in house; host or cells: High 5 insect cells (baculovirus, pFast-BAC)
T1 sequence (Q05469 1-1076): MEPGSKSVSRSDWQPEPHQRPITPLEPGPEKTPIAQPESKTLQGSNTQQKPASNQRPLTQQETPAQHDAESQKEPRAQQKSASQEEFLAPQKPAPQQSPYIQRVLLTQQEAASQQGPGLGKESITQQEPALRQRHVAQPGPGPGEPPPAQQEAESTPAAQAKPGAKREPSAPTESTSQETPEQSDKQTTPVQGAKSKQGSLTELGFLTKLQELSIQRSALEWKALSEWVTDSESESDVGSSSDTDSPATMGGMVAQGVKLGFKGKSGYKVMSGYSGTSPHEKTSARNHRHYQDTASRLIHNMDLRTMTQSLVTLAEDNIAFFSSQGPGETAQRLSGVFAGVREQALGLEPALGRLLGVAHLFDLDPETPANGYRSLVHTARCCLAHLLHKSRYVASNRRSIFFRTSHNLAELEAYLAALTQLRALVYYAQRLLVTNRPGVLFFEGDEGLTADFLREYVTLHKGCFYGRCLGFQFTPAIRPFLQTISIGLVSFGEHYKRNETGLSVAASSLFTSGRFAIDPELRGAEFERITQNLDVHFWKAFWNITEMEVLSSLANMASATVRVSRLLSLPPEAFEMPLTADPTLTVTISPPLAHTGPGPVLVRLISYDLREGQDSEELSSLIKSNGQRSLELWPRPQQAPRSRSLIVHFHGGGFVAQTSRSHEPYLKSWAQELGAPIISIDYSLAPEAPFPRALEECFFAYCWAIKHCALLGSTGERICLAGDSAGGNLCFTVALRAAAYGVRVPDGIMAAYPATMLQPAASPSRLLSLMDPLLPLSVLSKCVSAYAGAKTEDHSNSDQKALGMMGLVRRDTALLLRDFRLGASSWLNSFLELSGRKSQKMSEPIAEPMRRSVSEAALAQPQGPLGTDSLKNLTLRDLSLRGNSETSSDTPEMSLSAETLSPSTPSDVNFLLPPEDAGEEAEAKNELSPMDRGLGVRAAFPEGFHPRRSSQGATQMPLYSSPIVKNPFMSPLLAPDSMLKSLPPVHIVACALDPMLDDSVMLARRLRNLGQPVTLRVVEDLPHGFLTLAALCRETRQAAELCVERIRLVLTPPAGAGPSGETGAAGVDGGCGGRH
Put plainly: Human Hormone-Sensitive Lipase (HSL) enzyme inhibition assay (colorimetric, DMPT substrate). The class given is biochemical. As to conditions: human full length HSL-His6, 2,3-dimercapto-1-propanol tributyrate substrate, 37° C. 20 minutes, absorbance at 405 nm; read-out: HSL hum IC50. On the procedure: 1) Cloning: cDNA was prepared from commercial human brain polyA+ RNA and used as a template in overlapping PCR to generate a full length human HSL ORF with a 3′-His6 tag. This full length insert was cloned into the pFast-BAC vector and the DNA-sequence of several single clones was verified. DNA from a correct full length clone with the 3′His6 tag was used to transform the E. coli strain DH10BAC. Resulting bacmid DNA was used to generate a titered baculovirus stock for protein generation.
Cells were thawed. […] was done at 3×30 sec., Lubrol PX was added to 0.2% final concentration followed by stirring for 15 min. at 4° C. and centrifugation at 25 k×g, 60 min., 4° C. […] Supernatant was removed, the resin washed in the centrifuge vessel using 5 volumes of Base Buffer containing 0.2% Lubrol PX. Centrifugation was done again, then the supernatant discarded. The resin was poured onto a 0.8 μm membrane in a disposable filter unit (Nalge 450-0080), and washed with 5 volumes of Base Buffer containing 0.2% Lubrol PX. It was then washed with 30 volumes of Base Buffer containing 60 mM imidazole pH 7.5 at 4° C. The protein was eluated with 5 volumes of 25 mM Tris-Cl, 300 mM NaCl, 200 mM imidazole, 10 mM 2-mercaptoethanol, pH 7.5 at 4° C. by tumbling resin with buffer end-over-end, 30 min., 4° C. The resin was captured on a 0.2 μm membrane disposable filter unit (Millipore SCGP U02 RE) and the eluate collected in the reservoir. The eluate was concentrated using a 30 k MWCO centrifugal filter device (Sartorius Vivascience Vivacell 100, VC1022), to 20 ml. It was then dialyzed overnight at 4° C., two times against 2 L of 10% glycerol, 25 mM Tris-Cl, 300 mM NaCl, 0.2 mM EDTA, 0.2 mM DTT, pH 7.5 at 4° C. The protein was filtered using a 0.22 μm disposable filter unit (Millipore SCGP00525). The protein concentration was calculated from absorbance at 280 nm, using 280=0.67 cm-1 mg-1. […] The protein was stored at −80° C.
Human Hormone-Sensitive Lipase (HSL) Enzyme Inhibition Assay:
HSL enzyme activity was measured by a colorimetric assay using 2,3-dimercapto-1-propanol tributyrate (Aldrich, St. Louis, Mo.) as a substrate. Typically, 1.5 mM 2,3-dimercapto-1-propanol tributyrate (DMPT) in 100 mM MOPS, pH 7.2, 0.2 mg/ml fatty acid-free BSA was prepared by sonication at 4° C. to homogenous suspension. Test compounds (2 mM stock in DMSO) were diluted 3 fold in series in DMSO. Compound solutions were diluted 24 fold in 1.5 mM DMPT containing solution and 18 ul per well was added to 384-well microplates (Corning Costar). Twelve microliters per well of human HSL (15 ug/ml) was added and the reaction mixture was incubated at 37° C. for 20 minutes. Six microliters of 12 mM dithio-bis-(2-nitrobenzoic acid) (DTNB) in DMSO plus 1.2% SDS and 0.6% Triton X-100 were added and the mixture was incubated at room temperature for 15 minutes. Product production was monitored by reading absorbance at 405 nm on an Envision Reader (PerkinElmer Life and Analytical Sciences, Shelton, Conn.).

On to `O=C1N(c2ccc(C3CC3)cc2)CCC12CCN(CC(O)c1ccc(Cl)cc1)CC2` (stereo not drawn) [Example 24, 8-[2-(4-Chloro-phenyl)-2-hydroxy-ethyl]-2-(4-cyclopropyl-phenyl)-2,8-diaza-spiro[4.5]decan-1-one], for which the IC50 stood at 80 nM.
On to `CC(C(=O)Nc1ccc(F)cc1)N1CCC2(CCN(c3ccc(C4CC4)cc3)C2=O)CC1` (stereo not drawn) [Example 25, 2-[2-(4-Cyclopropyl-phenyl)-1-oxo-2,8-diaza-spiro[4.5]dec-8-yl]-N-(4-fluoro-phenyl)-propionamide], for which the IC50 is 40 nM.
Consider `CCC(C(=O)Nc1ccc(F)cc1)N1CCC2(CCN(c3ccc(C4CC4)cc3)C2=O)CC1` (stereo not drawn) [Example 26, 2-[2-(4-Cyclopropyl-phenyl)-1-oxo-2,8-diaza-spiro[4.5]dec-8-yl]-N-(4-fluoro-phenyl)-butyramide], for which the IC50 came to 50 nM.
For `CCCCNC(=O)C(C)N1CCC2(CCN(c3ccc(C4CC4)cc3)C2=O)CC1` (stereo not drawn) [Example 27, N-Butyl-2-[2-(4-cyclopropyl-phenyl)-1-oxo-2,8-diaza-spiro[4.5]dec-8-yl]-propionamide], the IC50 was 30 nM.
`CCCCNC(=O)C(CC)N1CCC2(CCN(c3ccc(C4CC4)cc3)C2=O)CC1` (stereo not drawn) [Example 28, N-Butyl-2-[2-(4-cyclopropyl-phenyl)-1-oxo-2,8-diaza-spiro[4.5]dec-8-yl]-butyramide]: the IC50 was found to be 30 nM.
For the molecule `CCCCNC(=O)C(c1ccccc1)N1CCC2(CCN(c3ccc(C4CC4)cc3)C2=O)CC1` (stereo not drawn) [Example 29, N-Butyl-2-[2-(4-cyclopropyl-phenyl)-1-oxo-2,8-diaza-spiro[4.5]dec-8-yl]-2-phenyl-acetamide], the IC50 came to 40 nM.
`CCCCNC(=O)C(CCCC)N1CCC2(CCN(c3ccc(C4CC4)cc3)C2=O)CC1` (stereo not drawn) [Example 30, 2-[2-(4-Cyclopropyl-phenyl)-1-oxo-2,8-diaza-spiro[4.5]dec-8-yl]-hexanoic acid butylamide]: the IC50 is 20 nM.
For `CCCCNC(=O)C(C(C)C)N1CCC2(CCN(c3ccc(C4CC4)cc3)C2=O)CC1` (stereo not drawn) [Example 31, N-Butyl-2-[2-(4-cyclopropyl-phenyl)-1-oxo-2,8-diaza-spiro[4.5]dec-8-yl]-3-methyl-butyramide] the value was 20 nM; for `O=C1N(c2ccc(C3CC3)cc2)CCC12CCN(C[C@@H](O)c1ccccc1)CC2` [Example 32, 2-(4-Cyclopropyl-phenyl)-8-((S)-2-hydroxy-2-phenyl-ethyl)-2,8-diaza-spiro[4.5]decan-1-one], 90 nM.
In the case of `O=C1N(c2ccc(C3CC3)cc2)CCC12CCN(C[C@H](O)c1ccccc1)CC2` [Example 33, 2-(4-Cyclopropyl-phenyl)-8-((R)-2-hydroxy-2-phenyl-ethyl)-2,8-diaza-spiro[4.5]decan-1-one], the IC50 worked out at 40 nM.
Consider `CC(O)(CN1CCC2(CC1)CCN(c1ccc(C3CC3)cc1)C2=O)c1ccccc1` (stereo not drawn) [Example 34, 2-(4-Cyclopropyl-phenyl)-8-(2-hydroxy-2-phenyl-propyl)-2,8-diaza-spiro[4.5]decan-1-one], for which the IC50 is 100 nM.
As for `O=C1N(c2ccc(C3CC3)cc2)CCC12CCN(C[C@H](O)c1ccc(F)cc1)CC2` [Example 35, 2-(4-Cyclopropyl-phenyl)-8-[(R)-2-(4-fluoro-phenyl)-2-hydroxy-ethyl]-2,8-diaza-spiro[4.5]decan-1-one], the IC50 was 20 nM.
Turning to `O=C1N(c2ccc(C3CC3)cc2)CCC12CCN(C[C@H](O)c1cccc(Cl)c1)CC2` [Example 36, 8-[(R)-2-(3-Chloro-phenyl)-2-hydroxy-ethyl]-2-(4-cyclopropyl-phenyl)-2,8-diaza-spiro[4.5]decan-1-one], the IC50 is 30 nM.
Consider `O=C1N(c2ccc(C3CC3)cc2)CCC12CCN(CC(O)c1ccc(Cl)c(Cl)c1)CC2` (stereo not drawn) [Example 37, 2-(4-Cyclopropyl-phenyl)-8-[2-(3,4-dichloro-phenyl)-2-hydroxy-ethyl]-2,8-diaza-spiro[4.5]decan-1-one], for which the IC50 was 30 nM.
For `O=C1N(c2ccc(C3CC3)cc2)CCC12CCN(CC(O)c1ccc(Cl)cc1Cl)CC2` (stereo not drawn) [Example 38, 2-(4-Cyclopropyl-phenyl)-8-[2-(2,4-dichloro-phenyl)-2-hydroxy-ethyl]-2,8-diaza-spiro[4.5]decan-1-one] the value was 30 nM; for `COc1ccc(C(C(O)C(N)=O)N2CCC3(CCN(c4ccc(C5CC5)cc4)C3=O)CC2)cc1` (stereo not drawn) [Example 40, 3-[2-(4-Cyclopropyl-phenyl)-1-oxo-2,8-diaza-spiro[4.5]dec-8-yl]-2-hydroxy-3-(4-methoxy-phenyl)-propionamide], 165 nM; for `CCCCNC(=O)[C@H](CCCC)N1CCC2(CCN(c3ccc(C4CC4)cc3)C2=O)CC1` [Example 41, (S)-2-[2-(4-Cyclopropyl-phenyl)-1-oxo-2,8-diaza-spiro[4.5]dec-8-yl]-hexanoic acid butylamide], 47 nM.
The value for `CCCCNC(=O)[C@@H](CCCC)N1CCC2(CCN(c3ccc(C4CC4)cc3)C2=O)CC1` [Example 42, (R)-2-[2-(4-Cyclopropyl-phenyl)-1-oxo-2,8-diaza-spiro[4.5]dec-8-yl]-hexanoic acid butylamide] was 11 nM.
As for `CCc1ccc(N2CCC3(CCN(CC(=O)c4ccc(Cl)cc4Cl)CC3)C2=O)cc1` [Example 43, 8-[2-(2,4-Dichloro-phenyl)-2-oxo-ethyl]-2-(4-ethyl-phenyl)-2,8-diaza-spiro[4.5]decan-1-one], the IC50 worked out at 36 nM.
On to `O=C1N(c2ccc(OCC(F)(F)F)cc2)CCC12CCN(CC(O)c1ccc(Cl)cc1Cl)CC2` (stereo not drawn) [Example 44, 8-[2-(2,4-Dichloro-phenyl)-2-hydroxy-ethyl]-2-[4-(2,2,2-trifluoro-ethoxy)-phenyl]-2,8-diaza-spiro[4.5]decan-1-one], for which the half-maximal inhibitory concentration (IC50) was 26 nM.
As to `C[C@@H](Oc1ccc(N2CCC3(CCN(CC(O)c4ccc(Cl)cc4Cl)CC3)C2=O)cn1)C(F)(F)F` (stereo partly drawn) [Example 45, 8-[2-(2,4-Dichloro-phenyl)-2-hydroxy-ethyl]-2-[6-((R)-2,2,2-trifluoro-1-methyl-ethoxy)-pyridin-3-yl]-2,8-diaza-spiro[4.5]decan-1-one], the half-inhibitory concentration (IC50) came to 22 nM.

The values above are taken from patent publication US8389539B2, “Azacyclic derivatives” (Hoffman-La Roche Inc., priority 2009, dated 2013).
